Reference: patent publication US20060003023A1, “Microbicidal composition” (priority 2004, published 2006)
Several values for one entry are separate records, joined by “and”; a condition that tells them apart may be missing. Identical values can stand only once.

Experiments:
[1] = system: Pseudomonas aeruginosa (ATCC 15442); experiment: High resolution MBC combination test (minimum biocidal concentration), recovery in Trypticase Soy Broth plus thioglycolate
[2] = system: Pseudomonas aeruginosa (ATCC 15442); experiment: High resolution MIC combination test (minimum inhibitory concentration), 96-well microtiter plate, mineral salts medium with 2% glucose
Description: When the sum of Qa/QA and Qb/QB is greater than one, antagonism is indicated. […] The lower the SI, the greater the synergy shown by that particular mixture. The minimum inhibitory concentration (MIC) of a microbicide is the lowest concentration tested under a specific set of conditions that prevents the growth of added microorganisms.
The tests were set up with 96-well microtiter plate using the Biomek™ 2000 Workstation employing a high resolution MIC/MBC combination test method, which provides multiple combinations of two biocides in one test plate. […] Samples (10 μl) taken from each well of the MIC plate were transferred to fresh media in the MBC plates and observed for the presence of surviving (viable) microorganisms over time. […] The synergistic ratio range of the biocide combination is a reflection of the total activity of both inhibition (MIC) and killing MBC).
Each well received 20 μl of a 24-hour pure culture suspension of Pseudomonas aeruginosa (ATCC 15442) at a final density of 106 colony forming units (CFU) per ml. Cell density was adjusted to an optical density of 0.09 at 660 nm using a spectrophotometer.
Tests were set up in duplicate with different starting concentrations of biocides to increase the number of possible combinations displaying antimicrobial activity.
All biocide results are reported on an active ingredient basis in ppm (parts per million).

CC1(C)C(=O)N(Br)C(=O)N1Cl [BCDMH, 3-Bromo-1-chloro-5,5-dimethylhydantoin] showed an A alone ([1]; MBC of BCDMH alone, Day 1, Expt MBC 1) of 6.25 ppm total oxidant, an A alone ([1]; MBC of BCDMH alone, Day 1, Expt MBC 2) of 6.25 ppm total oxidant and an A alone ([1]; MBC of BCDMH alone, Day 3, Expt MBC 2) of 6.25 ppm total oxidant. The A alone ([2]; MIC of BCDMH alone, Day 1, Expt MIC 1) was 3.13 ppm total oxidant, the A alone ([2]; MIC of BCDMH alone, Day 1, Expt MIC 2) was 3.13 ppm total oxidant and the A alone ([2]; MIC of BCDMH alone, Day 3, Expt MIC 1) was 6.25 ppm total oxidant. The A alone ([2]; MIC of BCDMH alone, Day 3, Expt MIC 2) was 6.25 ppm total oxidant, the A alone ([2]; MIC of BCDMH alone, Day 5, Expt MIC 1) was 6.25 ppm total oxidant and the A alone ([2]; MIC of BCDMH alone, Day 5, Expt MIC 2) was 6.25 ppm total oxidant.
Work on O=c1[nH]sc2ccccc12 [BIT, 1,2-Benzisothiazolin-3-one] yielded an A alone ([1]; BIT alone, ppm active ingredient, day 1, MBC 2) of 100.00 ppm, an a/A ([1]; BIT comb./alone, day 1, MBC 2) of 0.50 and an a comb. ([1]; BIT combined with stabilized hypochlorite and bromide, ppm active ingredient, day 1, MBC 2) of 50.00 ppm. For the same compound, the A alone [2] was 25.00 ppm, the A alone ([2]; BIT alone, ppm active ingredient, day 1, MIC 2) was 50.00 ppm and the A alone ([2]; BIT alone, ppm active ingredient, day 3, MIC 2) was 100.00 ppm. The a/A ([2]; BIT comb./alone, day 1, MIC 1) was 0.01, the a/A ([2]; BIT comb./alone, day 1, MIC 2) was 0.50 and 0.25 and the a/A ([2]; BIT comb./alone, day 3, MIC 2) was 0.50. For the same compound, the a comb. ([2]; BIT combined with stabilized hypochlorite and bromide, ppm active ingredient, day 1, MIC 2) was 25.00 ppm and 12.50 ppm and the a comb. ([2]; BIT combined with stabilized hypochlorite and bromide, ppm active ingredient, day 3, MIC 2) was 50.00 ppm.
N#CC(Br)(Br)C(N)=O [DBNPA, 2,2-Dibromo-nitrilo-propionamide] showed an A alone ([1]; DBNPA alone, ppm active ingredient, day 1, MBC 1) of 12.50 ppm, an a/A ([1]; DBNPA comb./alone, day 1, MBC 1) of 0.50 and an a comb. ([1]; DBNPA combined with stabilized hypochlorite and bromide, ppm active ingredient, day 1, MBC 1) of 6.25 ppm. The A alone ([2]; DBNPA alone, ppm active ingredient, day 1, MIC 1) was 6.25 ppm, the A alone ([2]; DBNPA alone, ppm active ingredient, day 1, MIC 2) was 6.25 ppm and the A alone ([2]; DBNPA alone, ppm active ingredient, day 5, MIC 1) was 12.50 ppm and 6.25 ppm. The A alone ([2]; DBNPA alone, ppm active ingredient, day 5, MIC 2) was 12.50 ppm, the a/A ([2]; DBNPA comb./alone, day 5, MIC 1) was 0.32 and 0.50 and the a/A ([2]; DBNPA comb./alone, day 5, MIC 2) was 0.32. For the same compound, the a comb. ([2]; DBNPA combined with stabilized hypochlorite and bromide, ppm active ingredient, day 1, MIC 1) was 1.56 ppm and 0.78 ppm, the a comb. ([2]; DBNPA combined with stabilized hypochlorite and bromide, ppm active ingredient, day 5, MIC 1) was 4.00 ppm and 3.13 ppm and the a comb. ([2]; DBNPA combined with stabilized hypochlorite and bromide, ppm active ingredient, day 5, MIC 2) was 4.00 ppm.
With CCCCCCCCn1sc(Cl)c(Cl)c1=O [DCOIT, 4,5-Dichloro-2-n-octyl-4-isothiazolin-3-one] the “A alone (MBC)” value ([1]; Day 1, MBC 1) was 10.00 ppm active ingredient, the “A alone (MBC)” value ([1]; Day 1, MBC 2) was 10.00 ppm active ingredient and the “A alone (MIC)” value ([2]; Day 1, MIC 1) was 2.50 ppm active ingredient. For the same compound, the “A alone (MIC)” value ([2]; Day 1, MIC 2) was 2.50 ppm active ingredient, the “A alone (MIC)” value ([2]; Day 3, MIC 1) was 5.00 ppm active ingredient and 10.00 ppm active ingredient and the “A alone (MIC)” value ([2]; Day 3, MIC 2) was 10.00 ppm active ingredient and 5.00 ppm active ingredient. For the same compound, the “A alone (MIC)” value ([2]; Day 5, MIC 1) was 5.00 ppm active ingredient and the “A alone (MIC)” value ([2]; Day 5, MIC 2) was 10.00 ppm active ingredient.
In the case of O=CCCCC=O [GLUT, Pentane-1,5-dial], the A alone ([1]; glutaraldehyde alone, ppm active ingredient, day 1, MBC 1) was 25.00 ppm, the A alone ([1]; glutaraldehyde alone, ppm active ingredient, day 1, MBC 2) was 25.00 ppm and the A alone ([1]; glutaraldehyde alone, ppm active ingredient, day 3, MBC 2) was 50.00 ppm. The a/A ([1]; glutaraldehyde comb./alone, day 1, MBC 1) was 0.50, the a/A ([1]; glutaraldehyde comb./alone, day 1, MBC 2) was 0.50 and the a/A ([1]; glutaraldehyde comb./alone, day 3, MBC 2) was 0.50. For the same compound, the a comb. ([1]; glutaraldehyde combined with stabilized hypochlorite and bromide, ppm active ingredient, day 1, MBC 1) was 12.50 ppm, the a comb. ([1]; glutaraldehyde combined with stabilized hypochlorite and bromide, ppm active ingredient, day 1, MBC 2) was 12.50 ppm and the a comb. ([1]; glutaraldehyde combined with stabilized hypochlorite and bromide, ppm active ingredient, day 3, MBC 2) was 25.00 ppm. The A alone ([2]; glutaraldehyde alone, ppm active ingredient, day 1, MIC 1) was 25.00 ppm, the A alone ([2]; glutaraldehyde alone, ppm active ingredient, day 1, MIC 2) was 25.00 ppm and the A alone ([2]; glutaraldehyde alone, ppm active ingredient, day 3, MIC 1) was 25.00 ppm. It also gave an A alone ([2]; glutaraldehyde alone, ppm active ingredient, day 3, MIC 2) of 50.00 ppm, an A alone ([2]; glutaraldehyde alone, ppm active ingredient, day 5, MIC 1) of 25.00 ppm and an A alone ([2]; glutaraldehyde alone, ppm active ingredient, day 5, MIC 2) of 50.00 ppm. It also gave an a/A ([2]; glutaraldehyde comb./alone, day 1, MIC 1) of 0.50, an a/A ([2]; glutaraldehyde comb./alone, day 1, MIC 2) of 0.50 and an a/A ([2]; glutaraldehyde comb./alone, day 3, MIC 1) of 0.50. The a/A ([2]; glutaraldehyde comb./alone, day 3, MIC 2) was 0.50, the a/A ([2]; glutaraldehyde comb./alone, day 5, MIC 1) was 0.50 and the a/A ([2]; glutaraldehyde comb./alone, day 5, MIC 2) was 0.50. It also gave an a comb. ([2]; glutaraldehyde combined with stabilized hypochlorite and bromide, ppm active ingredient, day 1, MIC 1) of 12.50 ppm, an a comb. ([2]; glutaraldehyde combined with stabilized hypochlorite and bromide, ppm active ingredient, day 1, MIC 2) of 12.50 ppm and an a comb. ([2]; glutaraldehyde combined with stabilized hypochlorite and bromide, ppm active ingredient, day 3, MIC 1) of 12.50 ppm. For the same compound, the a comb. ([2]; glutaraldehyde combined with stabilized hypochlorite and bromide, ppm active ingredient, day 3, MIC 2) was 25.00 ppm, the a comb. ([2]; glutaraldehyde combined with stabilized hypochlorite and bromide, ppm active ingredient, day 5, MIC 1) was 12.50 ppm and the a comb. ([2]; glutaraldehyde combined with stabilized hypochlorite and bromide, ppm active ingredient, day 5, MIC 2) was 25.00 ppm.
“Alkyl*dimethyl benzyl ammonium chloride [ADBAC]” was tested, and the “A alone (MBC)” value ([1]; Day 3, MBC 1) was 50.00 ppm active ingredient, the “A alone (MBC)” value ([1]; Day 3, MBC 2) was 50.00 ppm active ingredient and the “A alone (MIC)” value ([2]; Day 1, MIC 1) was 12.50 ppm active ingredient. For the same compound, the “A alone (MIC)” value ([2]; Day 3, MIC 2) was 50.00 ppm active ingredient.
